Columns and labels:
PIM2 expression in PBMCs = PIM2 expression in PBMCs from whole blood of patients with AML treated ex vivo; format: cell-based; details: Homo sapiens, PBMC, read-out: EC50 for increased PIM2 expression, whole blood treated overnight ex vivo
Protocol: The effects of INCB053914 on pBAD, pp70S6K, and p4E-BP1 levels and on the expression of PIM isozymes also were assessed ex vivo in primary bone marrow blasts (Stem Cell and Xenograft Core, University of Pennsylvania, Philadelphia, Pennsylvania) or in peripheral blood mononuclear cells (PBMCs) derived from whole blood samples obtained with informed written consent from adult patients with AML enrolled in an ongoing phase 1/2 dose-escalation trial, which was conducted in accordance with the study protocol approved by the respective institutional review boards or independent ethics committees. Only samples initially containing >90% viable cells were used (assessed by Trypan Blue staining). Immediately after thawing, the blasts were cultured in RPMI + 10% FBS with INCB053914 for 2 hours at 37°C, before lysis. For determinations of PIM2 expression in PBMCs, whole blood samples were treated overnight with increasing concentrations of INCB053914; total PBMCs were isolated by Ficoll-Paque density gradient centrifugation before lysis. The levels of PIM isozymes and phosphoproteins in cell lysates were detected by Western blotting using the same primary antibodies as above.

BTK = BTK (Homo sapiens, UniProt Q06187); test: Kinase selectivity panel; format: biochemical; details: [ATP] = 1 mM
Chain of BTK (Q06187 whole entry): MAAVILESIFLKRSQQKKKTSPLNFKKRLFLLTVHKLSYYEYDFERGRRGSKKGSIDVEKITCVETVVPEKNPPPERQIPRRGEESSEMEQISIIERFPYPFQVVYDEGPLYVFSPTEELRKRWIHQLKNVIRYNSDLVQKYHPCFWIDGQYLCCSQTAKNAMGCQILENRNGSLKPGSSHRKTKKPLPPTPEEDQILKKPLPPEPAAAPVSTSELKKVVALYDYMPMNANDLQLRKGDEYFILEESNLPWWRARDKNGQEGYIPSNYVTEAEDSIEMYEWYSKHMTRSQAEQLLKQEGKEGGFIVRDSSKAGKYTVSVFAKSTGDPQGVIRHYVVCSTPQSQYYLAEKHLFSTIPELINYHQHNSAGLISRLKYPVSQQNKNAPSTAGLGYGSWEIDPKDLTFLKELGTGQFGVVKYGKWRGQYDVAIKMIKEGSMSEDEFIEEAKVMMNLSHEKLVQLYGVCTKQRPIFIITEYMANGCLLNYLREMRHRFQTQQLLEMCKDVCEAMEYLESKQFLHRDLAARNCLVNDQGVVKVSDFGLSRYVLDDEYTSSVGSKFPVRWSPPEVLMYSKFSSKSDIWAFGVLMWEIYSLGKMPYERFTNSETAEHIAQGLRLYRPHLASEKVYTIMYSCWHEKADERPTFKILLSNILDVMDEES

TIE2 = TIE2 (Homo sapiens, UniProt Q02763); test: Kinase selectivity panel; format: biochemical; details: [ATP] = 1 mM
MINK = MINK (Homo sapiens, UniProt Q8N4C8); test: Kinase selectivity panel; format: biochemical; details: [ATP] = 1 mM
Chain of MINK (Q8N4C8 whole entry): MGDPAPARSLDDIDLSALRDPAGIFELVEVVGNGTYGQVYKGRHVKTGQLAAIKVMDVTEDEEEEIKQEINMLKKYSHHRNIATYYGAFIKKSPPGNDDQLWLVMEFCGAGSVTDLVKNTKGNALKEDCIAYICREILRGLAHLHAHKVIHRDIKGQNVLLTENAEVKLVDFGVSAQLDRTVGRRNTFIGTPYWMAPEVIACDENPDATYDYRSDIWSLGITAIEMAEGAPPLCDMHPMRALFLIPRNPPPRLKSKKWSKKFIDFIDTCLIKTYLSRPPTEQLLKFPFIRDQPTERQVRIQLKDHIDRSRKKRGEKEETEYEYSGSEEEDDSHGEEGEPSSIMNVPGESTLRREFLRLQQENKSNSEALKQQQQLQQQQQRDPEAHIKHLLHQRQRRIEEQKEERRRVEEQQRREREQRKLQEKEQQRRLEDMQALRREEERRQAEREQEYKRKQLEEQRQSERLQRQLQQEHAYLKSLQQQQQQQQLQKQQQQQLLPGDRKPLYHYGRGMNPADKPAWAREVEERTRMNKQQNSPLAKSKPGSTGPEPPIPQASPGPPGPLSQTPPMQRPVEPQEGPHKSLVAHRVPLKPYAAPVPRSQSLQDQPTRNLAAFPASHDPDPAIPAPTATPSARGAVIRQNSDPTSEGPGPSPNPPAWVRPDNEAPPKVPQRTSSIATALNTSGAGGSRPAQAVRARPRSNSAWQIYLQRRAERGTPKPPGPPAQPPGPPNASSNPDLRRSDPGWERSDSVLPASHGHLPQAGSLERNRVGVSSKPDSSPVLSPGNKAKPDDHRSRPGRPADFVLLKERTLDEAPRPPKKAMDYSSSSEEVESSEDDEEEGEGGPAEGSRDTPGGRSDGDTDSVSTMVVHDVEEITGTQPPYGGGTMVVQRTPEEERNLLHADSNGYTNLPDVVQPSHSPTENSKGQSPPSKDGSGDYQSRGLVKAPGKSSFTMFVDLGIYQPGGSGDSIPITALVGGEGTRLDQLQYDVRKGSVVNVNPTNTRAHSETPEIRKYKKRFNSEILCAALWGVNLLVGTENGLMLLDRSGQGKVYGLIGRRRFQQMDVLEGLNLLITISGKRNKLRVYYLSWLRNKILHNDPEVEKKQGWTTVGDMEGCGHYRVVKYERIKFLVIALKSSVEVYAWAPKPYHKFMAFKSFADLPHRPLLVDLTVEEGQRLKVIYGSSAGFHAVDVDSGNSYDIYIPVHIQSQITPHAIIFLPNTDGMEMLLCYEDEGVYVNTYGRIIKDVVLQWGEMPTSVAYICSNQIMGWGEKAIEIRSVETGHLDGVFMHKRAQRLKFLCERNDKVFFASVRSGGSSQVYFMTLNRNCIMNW

ERBB4 = ERBB4 (Homo sapiens, UniProt Q15303); test: Kinase selectivity panel; format: biochemical; details: [ATP] = 1 mM
Chain of ERBB4 (Q15303 26-1308): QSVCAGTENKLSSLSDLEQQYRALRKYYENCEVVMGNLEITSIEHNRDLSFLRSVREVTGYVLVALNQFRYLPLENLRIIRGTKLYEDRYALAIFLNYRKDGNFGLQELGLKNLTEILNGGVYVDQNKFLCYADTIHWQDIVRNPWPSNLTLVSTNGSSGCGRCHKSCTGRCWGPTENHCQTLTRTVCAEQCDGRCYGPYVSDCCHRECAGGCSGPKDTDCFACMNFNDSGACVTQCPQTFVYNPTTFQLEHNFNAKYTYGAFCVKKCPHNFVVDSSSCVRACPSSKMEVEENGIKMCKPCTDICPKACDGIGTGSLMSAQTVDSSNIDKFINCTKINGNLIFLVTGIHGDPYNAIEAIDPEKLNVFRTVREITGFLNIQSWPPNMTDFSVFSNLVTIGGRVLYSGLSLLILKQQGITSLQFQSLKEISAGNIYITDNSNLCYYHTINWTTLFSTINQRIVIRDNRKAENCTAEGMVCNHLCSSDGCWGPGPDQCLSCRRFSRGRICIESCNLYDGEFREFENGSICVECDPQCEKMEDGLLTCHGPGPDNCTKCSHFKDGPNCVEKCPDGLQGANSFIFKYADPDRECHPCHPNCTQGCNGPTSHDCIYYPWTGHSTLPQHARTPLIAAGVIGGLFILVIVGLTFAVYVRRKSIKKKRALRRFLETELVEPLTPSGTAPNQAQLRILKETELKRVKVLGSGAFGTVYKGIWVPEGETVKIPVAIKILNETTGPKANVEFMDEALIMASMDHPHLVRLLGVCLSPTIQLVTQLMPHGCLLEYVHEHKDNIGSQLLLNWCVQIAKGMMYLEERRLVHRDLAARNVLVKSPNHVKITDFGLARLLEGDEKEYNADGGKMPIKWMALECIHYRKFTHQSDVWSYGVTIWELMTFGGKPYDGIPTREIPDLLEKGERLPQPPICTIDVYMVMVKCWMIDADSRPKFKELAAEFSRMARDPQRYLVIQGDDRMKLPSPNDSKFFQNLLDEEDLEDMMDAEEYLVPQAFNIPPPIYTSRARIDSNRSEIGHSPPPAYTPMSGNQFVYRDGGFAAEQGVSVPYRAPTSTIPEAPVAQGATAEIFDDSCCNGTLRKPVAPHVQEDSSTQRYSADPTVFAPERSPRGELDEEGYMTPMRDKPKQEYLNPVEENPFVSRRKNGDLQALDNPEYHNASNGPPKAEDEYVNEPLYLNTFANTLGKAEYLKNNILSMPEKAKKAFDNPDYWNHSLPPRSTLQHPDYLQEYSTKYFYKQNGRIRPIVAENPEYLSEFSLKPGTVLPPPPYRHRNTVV

AXL = AXL (Homo sapiens, UniProt P30530); test: Kinase selectivity panel; format: biochemical; details: [ATP] = 1 mM
SGK1 = SGK1 (Homo sapiens, UniProt O00141); test: Kinase selectivity panel; format: biochemical; details: [ATP] = 1 mM
Chain of SGK1 (O00141 whole entry, species assumed): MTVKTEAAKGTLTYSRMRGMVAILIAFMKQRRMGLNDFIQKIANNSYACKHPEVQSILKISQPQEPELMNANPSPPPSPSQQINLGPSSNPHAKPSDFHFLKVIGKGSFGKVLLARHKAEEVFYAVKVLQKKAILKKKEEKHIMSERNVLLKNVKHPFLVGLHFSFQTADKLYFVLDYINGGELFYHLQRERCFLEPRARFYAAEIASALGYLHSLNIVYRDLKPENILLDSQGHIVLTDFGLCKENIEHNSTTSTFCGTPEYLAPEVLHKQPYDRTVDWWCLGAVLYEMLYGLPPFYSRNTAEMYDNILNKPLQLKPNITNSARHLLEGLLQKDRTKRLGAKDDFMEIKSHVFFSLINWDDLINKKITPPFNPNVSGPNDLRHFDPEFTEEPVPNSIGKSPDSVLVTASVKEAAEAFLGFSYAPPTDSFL

[1] = Tolerability in tumor-bearing SCID mice; format: in vivo; details: MOLM-16 and KMS-12-BM tumor-bearing mice, oral twice a day up to 100 mg/kg
Protocol: Non- GLP studies intended to characterize the pharmacology of INCB053914 were conducted in accordance with Incyte Corporation's Animal Use Protocols and DuPont Stine-Haskell SOPs. Animals were housed in barrier facilities fully accredited by the Association for Assessment and Accreditation of Laboratory Animal Care, International. All of the procedures were conducted under the supervision of a veterinarian and in accordance with the U.S. Public Health Service Policy on Humane Care and Use of Laboratory Animals. […] Analgesics and anesthetics could be used to minimize animal suffering and distress; neither were required during these studies. Animals on study were monitored twice daily and there were no unexpected deaths.
For the evaluation of the effects of INCB053914 on tumor growth, tumor-bearing mice (MOLM-16 xenograft, eight mice/group; KMS-12-BM xenograft, nine mice/group) were dosed orally twice a day with INCB053914 at doses ranging from 0 (vehicle) to 100 mg/kg for 15 days.

EPHA2 = EPHA2 (Homo sapiens, UniProt P29317); test: Kinase selectivity panel; format: biochemical; details: [ATP] = 1 mM
RPS6KB1 = RPS6KB1 (Homo sapiens, UniProt P23443); test: Kinase selectivity panel; format: biochemical; details: [ATP] = 1 mM
Chain of RPS6KB1 (P23443 whole entry): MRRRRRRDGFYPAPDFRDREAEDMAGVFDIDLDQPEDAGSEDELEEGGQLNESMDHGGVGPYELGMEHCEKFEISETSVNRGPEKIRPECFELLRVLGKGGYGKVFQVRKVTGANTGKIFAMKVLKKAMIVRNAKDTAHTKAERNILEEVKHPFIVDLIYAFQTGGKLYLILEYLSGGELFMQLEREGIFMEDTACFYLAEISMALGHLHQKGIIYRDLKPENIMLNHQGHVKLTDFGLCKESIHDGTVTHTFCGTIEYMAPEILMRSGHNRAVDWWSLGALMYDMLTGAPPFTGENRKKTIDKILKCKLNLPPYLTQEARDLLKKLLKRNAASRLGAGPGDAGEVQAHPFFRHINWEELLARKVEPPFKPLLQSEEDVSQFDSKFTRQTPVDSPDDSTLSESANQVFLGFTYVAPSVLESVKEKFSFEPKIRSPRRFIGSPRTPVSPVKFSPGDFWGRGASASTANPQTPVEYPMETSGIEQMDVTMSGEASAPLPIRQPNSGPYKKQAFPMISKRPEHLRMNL

NLK = NLK (Homo sapiens, UniProt Q9UBE8); test: Kinase selectivity panel; format: biochemical; details: [ATP] = 1 mM
EGFR = EGFR (Homo sapiens, UniProt P00533); test: Kinase selectivity panel; format: biochemical; details: [ATP] = 1 mM
GSK3B = GSK3B (Homo sapiens, UniProt P49841); test: Kinase selectivity panel; format: biochemical; details: [ATP] = 1 mM
Chain of GSK3B (P49841 whole entry): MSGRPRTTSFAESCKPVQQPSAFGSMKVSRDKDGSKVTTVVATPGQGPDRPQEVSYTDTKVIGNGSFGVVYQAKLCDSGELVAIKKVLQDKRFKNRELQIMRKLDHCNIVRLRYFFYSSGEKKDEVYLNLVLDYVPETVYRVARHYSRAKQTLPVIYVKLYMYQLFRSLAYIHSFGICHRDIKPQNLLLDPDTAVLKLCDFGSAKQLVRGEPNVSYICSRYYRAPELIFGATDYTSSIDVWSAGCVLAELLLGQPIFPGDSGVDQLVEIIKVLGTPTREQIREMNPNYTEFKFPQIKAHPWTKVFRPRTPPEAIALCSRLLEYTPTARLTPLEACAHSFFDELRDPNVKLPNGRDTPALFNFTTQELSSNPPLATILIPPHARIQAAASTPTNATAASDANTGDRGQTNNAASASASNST

PIM1 = PIM1 (Homo sapiens, UniProt P11309); test: Kinase selectivity panel; format: biochemical; details: [ATP] = 1 mM
Chain of PIM1 (P11309 whole entry): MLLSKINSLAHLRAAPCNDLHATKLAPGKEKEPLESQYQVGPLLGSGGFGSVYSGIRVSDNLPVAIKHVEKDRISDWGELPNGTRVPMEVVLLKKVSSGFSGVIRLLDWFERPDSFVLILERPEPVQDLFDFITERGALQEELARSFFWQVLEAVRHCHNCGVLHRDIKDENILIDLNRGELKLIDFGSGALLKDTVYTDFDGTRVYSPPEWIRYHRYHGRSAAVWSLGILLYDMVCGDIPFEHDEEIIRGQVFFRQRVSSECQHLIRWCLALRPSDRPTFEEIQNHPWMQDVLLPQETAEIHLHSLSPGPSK

SRC = SRC (Homo sapiens, UniProt P12931); test: Kinase selectivity panel; format: biochemical; details: [ATP] = 1 mM
[2] = Plasma concentrations of INCB053914 in tumor-bearing mice; format: in vivo, mouse; details: up to 16 hours post oral administration, MOLM-16 and KMS-12-BM tumor-bearing mice
Protocol: Human MOLM-16 (AML) and KMS-12-BM (MM) xenografts were established in SCID mice. For the evaluation of intratumoral pBAD inhibition, tumor-bearing mice (three to eight mice/group) were treated with a single oral dose of INCB053914 at doses ranging from 0 (vehicle) to 100 mg/kg. In one representative experiment, mice were sacrificed 4 hours after a single dose, and tumors were collected to analyze the levels of pBAD relative to those of vehicle-administered controls. Plasma samples were collected for pharmacokinetic analysis.
Concentrations of INCB053914 in plasma were analyzed using liquid chromatography tandem–mass spectrometry at 2, 4, 8, and 16 hours postdose (see Supporting Information, S3 File).
Blood samples from each study were collected using EDTA and centrifuged to obtain plasma. The calibration curves were prepared in mouse plasma (BioreclamationIVT, Westbury, New York). Samples (50 µl) were placed in a 2-ml square well plate (Costar, Corning, New York). Acetonitrile/methanol 9/1 v/v (550 µl) containing an internal standard was added for precipitation of the protein. The 96-well plate was covered, vortexed for 5 minutes, and centrifuged for 10 minutes at 3,000 rpm. […] The samples were analyzed for INCB053914 by liquid chromatography tandem–mass spectrometry using gradient high-performance liquid chromatography and atmospheric pressure chemical ionization.

[3] = tested on: phosphorylation of BAD in KMS-12-BM cells; test: pBAD S112 ELISA in cells; format: cell-based; details: Homo sapiens, 2.5 hours, RPMI + 10% FBS, read-out: mean (± SD) IC50, pBAD inhibition
Protocol: The effect of INCB053914 on the level of pBAD was further investigated in KMS-12-BM and MOLM-16 cells, which were suspended in RPMI + 10% fetal bovine serum (FBS) and seeded into 96-well v-bottom polypropylene plates (Greiner, Munroe, North Carolina; 4 × 10^5 cells/well/100 μl) in the presence of 5 μl INCB053914 at a final concentration range of 0.1 nM to 1,000 nM. After 2.5 hours at 37°C and 5% CO2, the cells were lysed in 100 μl of cell extraction buffer (Cell Signaling Technology) containing phenylmethane sulfonyl fluoride, Halt^TM phosphatase, and protease inhibitors (Thermo Fisher Scientific, Waltham, Massachusetts; Calbiochem). The concentration of pBAD protein in the cell lysates was quantified using a Human pBAD S112 ELISA Kit (Cell Signaling Technology).

C[C@H]1CN(c2c(NC(=O)c3ccc(F)c(-c4c(F)cccc4F)n3)cnc3c2CC[C@H]3O)C[C@@H](N)[C@@H]1O.O=P(O)(O)O [INCB053914, N-((R)-4-((3R,4R,5S)-3-amino-4-hydroxy-5-methylpiperidin-1-yl)-7-hydroxy-6,7-dihydro-5H-cyclopenta[b]pyridin-3-yl)-6-(2,6-difluorophenyl)-5-fluoropicolinamide phosphate]
EC50 (PIM2 expression in PBMCs): 0.116 µM | IC50 (BTK): > 20 µM | IC50 (TIE2): > 20 µM | IC50 (MINK): > 20 µM | IC50 (ERBB4): > 20 µM | IC50 (AXL): > 20 µM | IC50 (SGK1): > 20 µM | tolerability [1]: tolerated at all doses tested | IC50 (EPHA2): > 20 µM | IC50 (RPS6KB1): > 20 µM | IC50 (NLK): > 20 µM | IC50 (EGFR): > 20 µM | IC50 (GSK3B): > 20 µM | IC50 (PIM1): < 0.012 µM | IC50 (SRC): > 20 µM | plasma concentrations versus dose [2]: suggested dose proportionality | IC50 [3]: 0.027 µM

Source: publication PMC6013247, “Preclinical characterization of INCB053914, a novel pan-PIM kinase inhibitor, alone and in combination with anticancer agents, in models of hematologic malignancies” (PLoS ONE, 2018)
